Data taken from patent US20220267394A1, “COMPOUNDS FOR INDUCING TISSUE FORMATION AND USES THEREOF” (HISTIDE AG, priority 2015, published 2022).
Where no end group is shown, it is not given here.

Test system: hMSCs
Experiment: Loss of stemness: STRO-1 expression by immunostaining
Format: cell-based, human
Procedure: The cells were first fixed for 20 min with 4% paraformaldehyde/PBS at 4° C. After fixation, the cells were permeabilized in PBS containing 1% Triton X-100 for 15 min. Runx2, Osterix, Stro-1, Vinculin, Phalloidin, Osteopontin, Sox2, Sox9 antibodies were visualized by treating the cells with 1% (v/v) specific monoclonal antibodies for 1 hour at 37° C. Then the samples were incubated with Alexa Fluor® 568 or 647 (F(ab′)2 fragment of IgG(H+L)) during 30 min at room temperature. The cell nuclei were counterstained in 20 ng/mL DAPI for 10 min at room temperature.
For this type of quantification the freeware image analysis ImageJ® software was used. The raw image was first converted to an 8-bit file, and then the unsharp mask feature was used (settings 1:0.2) to remove the image background (rolling ball radius 10). After smoothing, the resulting image, which appears similar to the original photomicrograph but with minimal background, was then converted to a binary image by setting a threshold. Threshold values were determined empirically by selecting a setting, which gave the most accurate binary image for a subset of randomly selected photomicrographs. The cell area was determined by manual delineation on raw fluorescent images. Total contact area and mean contact area per cell were calculated by “analyse particules” in ImageJ®. A minimum of 30 cells per condition were analyzed. Stro-1, CD-34+, and CD-105 expressions were determined using this procedure.
hMSCs were cultured on conventional cell culture plastic plates with or without the presence in the cell culture media of different GFR-binding compounds as described herein (SEQ ID NO: 50 to 88) in solution. […] This was probed by Stro-1 immunostaining after cell fixation as described in the Methods section. The quantification of Stro-1 positive contact numbers and areas was performed as described in the Methods section. A minimum of 30 cells per condition were analyzed. Stro-1 positive marrow cells are multipotential and capable of differentiating into multiple mesenchymal lineages including stromal cells with a phenotype resembling vascular smooth muscle cells that can support hematopoiesis, adipocytes, osteoblasts, and chondrocytes.
Using the method detailed in the description, the RMSD of 57 previously reported peptide sequences have been determined (Table 6) and correlated with the expression of STRO-1 in solution. […] One should note that it is commonly admitted that the expression of STRO-1 in a cell is indicative of a cell that is in a substantially non-differentiated state and the decrease of its expression of at least about 20% is indicative of a cell that has started a process of differentiation but which may not result in the differentiation of the cell. A decrease of more than 50% would be indicative of the presence of a significant shift towards a differentiated state. A decrease of more than 70% would be indicative of the presence of a very important shift towards a differentiated state. A sustained decrease (e.g. for at least 96 h) of more than 50% or 70% would be indicative of the presence of an even more important shift towards a differentiated state.
Likewise, using the method detailed in the description, the RMSD of 75 GFR-binding peptide sequence representatives of the invention have been determined (Table 8) and correlated with the expression of STRO-1. SEQ ID NO: 1 to 49 were tested in combination with a bioactive carrier as defined above in the Examples Section (i.e. titanium, ceramics, collagen, etc. . . . ), whereas SEQ ID NO: 2242 to 2267 were tested in solution.

[1] = Table 6, previously reported peptides in solution, 400 ng/mL
[2] = Table 8, SEQ ID NO: 1 to 49 tested in combination with a bioactive carrier (titanium, ceramics, collagen, etc.)
[3] = Table 8, SEQ ID NO: 2242 to 2267 tested in solution

| Substance | STRO-1 expression (%) [1] [%] | STRO-1 expression (%) [2] [%] | other results |
| --- | --- | --- | --- |
| 2213 (KPCCAPTQLSAISVLYFDDSSNVILKKYRNMVVRACGCR; Peptide reported in US20050250936, SEQ ID NO:123) [compound 2213] | 80 | – | – |
| 24 (GTPGPPSSAPTQLSATSVLYYDDSSNVILRKHRMIVKS; GFR-binding peptide) [compound 24] | – | 21 | – |
| 2197 (LSLLAPPEPVWNHETSYGSDCHVPTNVNAISKMIDKSNHQTG; Peptide reported in US20140130203, SEQ ID NO:119179) [compound 2197] | 93 | – | – |
| 2247 (VPTSSSPISTLYIDKGVVTYLKYHYSSVAE; GFR-binding peptide) [compound 2247] | – | – | STRO-1 expression (%) [3]: 20% |
| 2259 (TQVAARPVQTRKIDDMGVPTKKATVAAEDH; GFR-binding peptide) [compound 2259] | – | – | STRO-1 expression (%) [3]: 23% |
| 2 (CKVGKASSVPTKLSAISTLYLDDMGVPTLKNYQNMVVRASGSH; not fully specified; ends and bridges not checked) [compound 2] | – | 21 | – |
| 2187 (SVPAVCSATSATGPYSTATNTVWPSIVATGGTT; Peptide reported in EP1687419, SEQ ID NO:43) [compound 2187] | 92 | – | – |
| 2255 (SRVAARSVKMAKVGGGGGGGKEVQVAAEEH; GFR-binding peptide) [compound 2255] | – | – | STRO-1 expression (%) [3]: 31% |
| 22 (WWFWGKVPKPSSAPTQLSAISTLYLDEYDKVVLKNYQNMVVR; not fully specified; ends and bridges not checked) [compound 22] | – | 17 | – |
| 2250 (VPTVVSPISMLYIDDMGVPTYKQYEVVVVE; GFR-binding peptide) [compound 2250] | – | – | STRO-1 expression (%) [3]: 26% |
| 2171 (SHQSAGDSIKSPARHSAPTHQEPLPD; Peptide reported in WO2013040142, SEQ ID NO:3137100) [compound 2171] | 91 | – | – |
| 39 (CVPTEESNITMQIMRIKPHQGQHIGEMSFL; GFR-binding peptide) [compound 39] | – | 16 | – |
| 2202 (CPKPSSAPTELSAISMLL; Peptide reported in WO2009151288, SEQ ID NO:3) [compound 2202] | 79 | – | – |
| 2179 (TLXPIVSSXNPSPISFRXIKILLHDLEVVPFPKSRVR; Peptide reported in US20040031072, SEQ ID NO:272830; MOD_RES (3), (9), (18): Xaa is A) [compound 2179] | 84 | – | – |
| 45 (CAAPASSSVPARLSPISLLYIDAANNVVYKQYEDM; not fully specified; ends and bridges not checked) [compound 45] | – | 24 | – |
| 2162 (ENVNLKKYRNMIVKSCGCH; Peptide reported in US20040039543, SEQ ID NO:107) [compound 2162] | 97 | – | – |
| 2205 (KIPKPSSAPTELSAISMLYC; Peptide reported in WO2009151288, SEQ ID NO:5) [compound 2205] | 80 | – | – |
| 2251 (APVAAKPLSMLYVDKGVVTYDHHKDAAVEE; GFR-binding peptide) [compound 2251] | – | – | STRO-1 expression (%) [3]: 22% |
| 27 (GTPGPAPTKLSAISMLYLDSSNNVILRKHR; GFR-binding peptide) [compound 27] | – | 19 | – |
| 2176 (MQCRELVTQVTEEPISQTEDGEEQESTTTPRLKGQKKE; Peptide reported in US20070083334, SEQ ID NO:958173) [compound 2176] | 85 | – | – |
| 21 (CGGGSSVPTELSAISTLYLDDYDKVILKKYRNM; GFR-binding peptide) [compound 21] | – | 14 | – |
| 31 (GTPGPPKPSSAPTQLNAISMLYFGGGGGLKKYRDMQHN; GFR-binding peptide) [compound 31] | – | 31 | – |
| 34 (GTPGPRNVQCRPTQVQLSAISTLYLEIVRKKPLKNYQTLEDH; GFR-binding peptide) [compound 34] | – | 18 | – |

| Substance | STRO-1 expression (%) [1] [%] | STRO-1 expression (%) [2] [%] | other results |
| --- | --- | --- | --- |
| 2183 (TPTVVSATSL; Peptide reported in US20150153356, SEQ ID NO:51419) [compound 2183] | 98 | – | – |
| 2181 (VPTKLSPISILYKDDMGVPTYKFKYEGMSVAECGCR; Peptide reported in US20140056902, SEQ ID NO:88) [compound 2181] | 82 | – | – |
| 2173 (TKPLSSLLFPNWNTTTTPTPPRP; Peptide reported in WO2013040142, SEQ ID NO:866827) [compound 2173] | 91 | – | – |
| 2248 (VPTAAEPISMLYLDEYDKVVKFKYEAAAVS; GFR-binding peptide) [compound 2248] | – | – | STRO-1 expression (%) [3]: 26% |
| 5 (CASASPXXVSQDLNAISVLYFIGKTPKILKKYRMIVKSXKXS; GFR-binding peptide; MOD_RES (7), (8), (39), (41): Xaa is C or S) [compound 5] | – | 26 | – |
| 2188 (SSVPAVCSATSATGPYSSGSVEVTFDVYATTVY; Peptide reported in EP1687419, SEQ ID NO:45) [compound 2188] | 92 | – | – |
| 2242 (VPTAASAISILYLDAANNVVLKNYQAAVVE; GFR-binding peptide) [compound 2242] | – | – | STRO-1 expression (%) [3]: 17% |
| 32 (WWFWGKASSVPTELSPISTLYKDENEKVVLKYHYDMVVEGSGSR; not fully specified; ends and bridges not checked) [compound 32] | – | 21 | – |
| 2211 (CCAPTELSAISVLYFDDSSNVILKKYRNMVVRACGCR; Comparative sequence) [compound 2211] | 81 | – | – |
| 2265 (AVPKASSVPQKLEPLTILYYDSSNNVIEQLSNNMVKSASGSH; GFR-binding peptide) [compound 2265] | – | – | STRO-1 expression (%) [3]: 21% |
| 2160 (PIIYYVGRNVRVEQLSNMVVRRA; Comparative sequence) [compound 2160] | 98 | – | – |
| 2180 (VPTKLSPISILYLDKGVVTYKFKYEGMSVAECGCR; Peptide reported in US8969040, SEQ ID NO:90) [compound 2180] | 80 | – | – |
| 2158 (VEQLSNMVVK; Peptide reported in US20130259924, SEQ ID NO:21667) [compound 2158] | 98 | – | – |
| 2189 (SSVPAVCSATSATGPYSTATNTVWFDVYATTVY; Peptide reported in EP1687419, SEQ ID NO:46) [compound 2189] | 91 | – | – |
| 2200 (FDSRVLKSAISFKENIIF; Peptide reported in WO2013040142, SEQ ID NO:2935795) [compound 2200] | 89 | – | – |
| 38 (CVPTEERSVKVAKVRIKPHQGQHKEVQV; GFR-binding peptide) [compound 38] | – | 23 | – |
| 2186 (SVPAVCSATSATGPYSSVTVTSWPSIVATGGTT; Peptide reported in EP1687419, SEQ ID NO:42) [compound 2186] | 92 | – | – |
| 19 (CPKPSSAPTQLSAISTLYLDDSSNVILKNYQMIVVRA; GFR-binding peptide) [compound 19] | – | 20 | – |
| 2257 (VPTGGEPLTTLYYNDKQQIIEQLSNGGEHS; GFR-binding peptide) [compound 2257] | – | – | STRO-1 expression (%) [3]: 26% |
| 2254 (VPTMMSNITTQIMRIKPHQGQHIGEMSMMQHN; GFR-binding peptide) [compound 2254] | – | – | STRO-1 expression (%) [3]: 19% |
| 2167 (LNEVLRFCGIQVPEGDEPLTY; Peptide reported in WO2013040142, SEQ ID NO:89702) [compound 2167] | 99 | – | – |
| 17 (CASAAPSSVPQKLNAISMLYFVGRKPKVLKKYRMIVRS; not fully specified; ends and bridges not checked) [compound 17] | – | 21 | – |
| 9 (CRNVQCRPTQVQLSAISTLYLEIVRKKPLKNYQTLEDH; GFR-binding peptide) [compound 9] | – | 19 | – |
